ChEMBL document CHEMBL1201862, “PubChem BioAssay data set” (2004)
Active and inactive are the calls of the source.

Assays:
[1] = target: T1, Corticotropin-releasing factor receptor 2/Corticotropin-releasing factor-binding protein (Homo sapiens, UniProt P24387+Q13324); experiment: Dose Response confirmation of uHTS hits for small molecule antagonists of the CRF-binding protein and CRF-R2 receptor complex.; type: functional; settings: read-out: IC50_Mean
T1 sequence (Q13324 whole entry): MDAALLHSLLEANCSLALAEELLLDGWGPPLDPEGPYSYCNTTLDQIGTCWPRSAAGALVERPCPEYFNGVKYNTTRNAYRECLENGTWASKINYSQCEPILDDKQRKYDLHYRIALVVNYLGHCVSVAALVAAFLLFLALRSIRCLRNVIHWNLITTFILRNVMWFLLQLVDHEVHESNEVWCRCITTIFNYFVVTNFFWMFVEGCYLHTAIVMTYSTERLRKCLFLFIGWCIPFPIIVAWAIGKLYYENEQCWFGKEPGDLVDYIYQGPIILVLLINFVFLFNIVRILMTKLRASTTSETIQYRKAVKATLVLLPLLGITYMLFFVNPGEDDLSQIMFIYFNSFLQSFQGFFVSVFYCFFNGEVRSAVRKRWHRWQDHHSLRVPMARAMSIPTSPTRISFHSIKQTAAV
T1 sequence (P24387 whole entry): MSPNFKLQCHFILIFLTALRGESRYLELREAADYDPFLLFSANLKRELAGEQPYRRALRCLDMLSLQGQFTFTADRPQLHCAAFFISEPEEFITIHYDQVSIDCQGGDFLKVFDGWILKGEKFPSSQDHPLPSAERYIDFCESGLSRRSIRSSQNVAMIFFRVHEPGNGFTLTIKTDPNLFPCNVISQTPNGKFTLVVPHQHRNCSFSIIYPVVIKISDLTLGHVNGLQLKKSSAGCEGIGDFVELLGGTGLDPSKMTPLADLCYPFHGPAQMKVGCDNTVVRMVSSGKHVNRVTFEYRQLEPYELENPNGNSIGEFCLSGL

[2] = target: T1, Corticotropin-releasing factor receptor 2/Corticotropin-releasing factor-binding protein; experiment: activators of CRF receptor 2 with binding protein – uHTS hits, confirmation (AID 602473); type: functional; settings: read-out: EC50_Mean
Nonstructural protein 1 = Nonstructural protein 1 (Influenza A virus, UniProt Q194T2); type: functional, Influenza A virus (A/California/07/2009(H1N1))
Chain of Nonstructural protein 1 (Q194T2 whole entry): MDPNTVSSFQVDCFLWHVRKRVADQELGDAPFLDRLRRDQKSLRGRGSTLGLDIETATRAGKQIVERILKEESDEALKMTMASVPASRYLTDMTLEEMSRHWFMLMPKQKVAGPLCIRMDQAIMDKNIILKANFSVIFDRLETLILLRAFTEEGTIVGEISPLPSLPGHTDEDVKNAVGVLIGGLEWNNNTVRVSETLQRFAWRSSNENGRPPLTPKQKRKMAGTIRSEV

H4 = experiment: Luminescence Cell-Based Dose Response HTS to Identify Activators of 5'UTR Stem-Loop Driven Prion Protein mRNA Translation in H4 Neuroglioblastoma Cells. [Related pubchem assays: 1829 (Project Summary), 1814 (Primary HTS)]; type: functional; settings: Homo sapiens
[3] = Luminescence Cell-Based Dose Confirmation HTS to Identify Activators of 5'UTR Stem-Loop Driven Alpha-Synuclein mRNA Translation in H4 Neuroglioblastoma Cells. [Related pubchem assays: 1829 (Project Summary), 1814 (Primary HTS)]; type: functional
[4] = Luminescence Cell-Based Dose Response HTS to Identify Activators of Luciferase Translation or Activity in H4 […] Cells. [Related pubchem assays: 1829 (Project Summary), 1814 (Primary HTS)]; type: functional
[5] = target: T2, Heat shock factor protein 1 (Mus musculus, UniProt P38532); experiment: inhibition of MG132-induced HSE-luciferase signal, confirmation, cell-based, NIH3T3, luminescence, dose retest (AID 2382); type: functional;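 also: NIH3T3 fibroblasts with HSF1-driven luciferase reporter stressed by proteasome inhibitor MG132; luminescence from HSF1-driven luciferase expression after 8 hours of MG132 stress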
T2 sequence (P38532 whole entry): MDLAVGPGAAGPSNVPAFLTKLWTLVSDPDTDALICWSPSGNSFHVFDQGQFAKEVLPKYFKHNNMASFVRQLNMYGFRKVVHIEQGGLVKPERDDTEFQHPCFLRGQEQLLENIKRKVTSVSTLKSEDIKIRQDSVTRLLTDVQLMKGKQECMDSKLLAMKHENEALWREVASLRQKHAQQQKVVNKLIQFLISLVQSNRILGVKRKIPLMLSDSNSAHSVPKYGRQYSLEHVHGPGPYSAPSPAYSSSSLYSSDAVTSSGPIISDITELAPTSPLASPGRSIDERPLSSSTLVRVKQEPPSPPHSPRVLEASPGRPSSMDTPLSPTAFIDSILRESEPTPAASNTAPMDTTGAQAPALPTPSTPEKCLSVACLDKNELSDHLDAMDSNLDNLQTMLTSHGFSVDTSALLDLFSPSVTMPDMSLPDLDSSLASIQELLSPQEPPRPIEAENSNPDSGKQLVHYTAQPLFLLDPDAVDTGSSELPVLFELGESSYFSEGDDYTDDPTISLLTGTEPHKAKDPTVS

HEK293 = experiment: inhibitors of LMP1-driven NF-kB reporter, dose response, cell-based, HEK293, luciferase, cherry-pick (AID 588343); type: functional; settings: Homo sapiens
[6] = Luminescence Cell-Based Dose Retest to Confirm Inhibitors of Cancer Stem Cells. [Related pubchem assays (depositor defined):AID2717, AID2721]; type: functional; settings: Homo sapiens
[7] = HepG2 cell cytotoxicity, dose response, cytotoxicity control for Shn3 inhibitor project, CellTiter-Glo, cherry-picked (AID 624134); type: functional, cell-based
[8] = growth suppression of beta-catenin-knockout colon cells, dose response, cell-based, HCT116, human colon tumor (AID 1045); type: functional;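 also: HCT116 colon tumor cells with beta catenin knocked out; cells exposed to compound for 60 hours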
INS1 = experiment: beta cell apoptosis inhibitors, cytokine rescue, dose response, luminescence, retest (AID 449756); type: functional, cell-based; settings: Rattus norvegicus;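 also: cell death triggered by IL-1 beta plus TNF-alpha plus IFN-gamma mixture; protective hits raise ATP signal compared with cytokine alone wells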
Paired box protein Pax-8 = Paired box protein Pax-8 (Homo sapiens, UniProt Q06710); experiment: inhibitors of PAX8-driven TPO luciferase reporter, dose response, RMG-I cells, cherry-pick (AID 687027); type: functional, cell-based;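 also: luciferase reporter driven by Pax8 target thyroperoxidase promoter measured by SteadyGlo luminescence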
Chain of Paired box protein Pax-8 (Q06710 whole entry): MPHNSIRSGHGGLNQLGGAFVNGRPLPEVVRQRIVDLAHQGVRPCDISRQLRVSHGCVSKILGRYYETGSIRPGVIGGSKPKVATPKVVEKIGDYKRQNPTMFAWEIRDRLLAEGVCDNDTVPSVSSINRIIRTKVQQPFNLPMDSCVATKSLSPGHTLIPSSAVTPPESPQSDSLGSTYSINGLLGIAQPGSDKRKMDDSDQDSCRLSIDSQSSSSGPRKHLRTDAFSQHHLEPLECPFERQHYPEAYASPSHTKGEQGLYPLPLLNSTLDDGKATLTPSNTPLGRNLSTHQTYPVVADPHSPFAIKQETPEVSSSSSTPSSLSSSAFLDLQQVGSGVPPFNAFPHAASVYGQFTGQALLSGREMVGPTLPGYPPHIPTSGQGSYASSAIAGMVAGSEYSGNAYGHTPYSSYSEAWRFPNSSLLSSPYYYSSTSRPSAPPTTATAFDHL

[9] = growth suppression of PTEN-null colon cells, dose response, cell-based, HCT116 PTEN knockout (AID 1047); type: functional;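 also: HCT116 colon tumor cells with PTEN knocked out; cells exposed to compound for 60 hours before readout; potency for loss of cell viability measured by luminescence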
[10] = control 3'UTR Renilla luciferase suppression, dose response, counter-screen for Shn3 inhibitor project, cell-based, Clone20-Shn3RL, cherry-picked (AID 624133); type: functional
[11] = Shn3 3'UTR reporter inhibitors, dose response, cell-based, Clone20 osteoblasts, firefly luciferase, cherry-picked (AID 624132); type: functional;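 also: firefly luciferase luminescence from reporter carrying the Shn3 3'UTR in osteoblasts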
[12] = HEp-2 cell cytotoxicity, dose response, cytotoxicity control for RSV inhibitor project, HTS (AID 2410); type: functional; settings: human respiratory syncytial virus
Fatty acid synthase [13] = target: T3, Fatty acid synthase (Homo sapiens, UniProt P49327); experiment: FAS thioesterase domain inhibitors, dose response, biochemical, kinetic fluorescence intensity (AID 624326); type: functional;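 also: rate of fluorescence rise from hydrolysis of a fluorogenic O-methyl fluorescein ester substrate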
T3 sequence (P49327 whole entry, the tested form may be a part): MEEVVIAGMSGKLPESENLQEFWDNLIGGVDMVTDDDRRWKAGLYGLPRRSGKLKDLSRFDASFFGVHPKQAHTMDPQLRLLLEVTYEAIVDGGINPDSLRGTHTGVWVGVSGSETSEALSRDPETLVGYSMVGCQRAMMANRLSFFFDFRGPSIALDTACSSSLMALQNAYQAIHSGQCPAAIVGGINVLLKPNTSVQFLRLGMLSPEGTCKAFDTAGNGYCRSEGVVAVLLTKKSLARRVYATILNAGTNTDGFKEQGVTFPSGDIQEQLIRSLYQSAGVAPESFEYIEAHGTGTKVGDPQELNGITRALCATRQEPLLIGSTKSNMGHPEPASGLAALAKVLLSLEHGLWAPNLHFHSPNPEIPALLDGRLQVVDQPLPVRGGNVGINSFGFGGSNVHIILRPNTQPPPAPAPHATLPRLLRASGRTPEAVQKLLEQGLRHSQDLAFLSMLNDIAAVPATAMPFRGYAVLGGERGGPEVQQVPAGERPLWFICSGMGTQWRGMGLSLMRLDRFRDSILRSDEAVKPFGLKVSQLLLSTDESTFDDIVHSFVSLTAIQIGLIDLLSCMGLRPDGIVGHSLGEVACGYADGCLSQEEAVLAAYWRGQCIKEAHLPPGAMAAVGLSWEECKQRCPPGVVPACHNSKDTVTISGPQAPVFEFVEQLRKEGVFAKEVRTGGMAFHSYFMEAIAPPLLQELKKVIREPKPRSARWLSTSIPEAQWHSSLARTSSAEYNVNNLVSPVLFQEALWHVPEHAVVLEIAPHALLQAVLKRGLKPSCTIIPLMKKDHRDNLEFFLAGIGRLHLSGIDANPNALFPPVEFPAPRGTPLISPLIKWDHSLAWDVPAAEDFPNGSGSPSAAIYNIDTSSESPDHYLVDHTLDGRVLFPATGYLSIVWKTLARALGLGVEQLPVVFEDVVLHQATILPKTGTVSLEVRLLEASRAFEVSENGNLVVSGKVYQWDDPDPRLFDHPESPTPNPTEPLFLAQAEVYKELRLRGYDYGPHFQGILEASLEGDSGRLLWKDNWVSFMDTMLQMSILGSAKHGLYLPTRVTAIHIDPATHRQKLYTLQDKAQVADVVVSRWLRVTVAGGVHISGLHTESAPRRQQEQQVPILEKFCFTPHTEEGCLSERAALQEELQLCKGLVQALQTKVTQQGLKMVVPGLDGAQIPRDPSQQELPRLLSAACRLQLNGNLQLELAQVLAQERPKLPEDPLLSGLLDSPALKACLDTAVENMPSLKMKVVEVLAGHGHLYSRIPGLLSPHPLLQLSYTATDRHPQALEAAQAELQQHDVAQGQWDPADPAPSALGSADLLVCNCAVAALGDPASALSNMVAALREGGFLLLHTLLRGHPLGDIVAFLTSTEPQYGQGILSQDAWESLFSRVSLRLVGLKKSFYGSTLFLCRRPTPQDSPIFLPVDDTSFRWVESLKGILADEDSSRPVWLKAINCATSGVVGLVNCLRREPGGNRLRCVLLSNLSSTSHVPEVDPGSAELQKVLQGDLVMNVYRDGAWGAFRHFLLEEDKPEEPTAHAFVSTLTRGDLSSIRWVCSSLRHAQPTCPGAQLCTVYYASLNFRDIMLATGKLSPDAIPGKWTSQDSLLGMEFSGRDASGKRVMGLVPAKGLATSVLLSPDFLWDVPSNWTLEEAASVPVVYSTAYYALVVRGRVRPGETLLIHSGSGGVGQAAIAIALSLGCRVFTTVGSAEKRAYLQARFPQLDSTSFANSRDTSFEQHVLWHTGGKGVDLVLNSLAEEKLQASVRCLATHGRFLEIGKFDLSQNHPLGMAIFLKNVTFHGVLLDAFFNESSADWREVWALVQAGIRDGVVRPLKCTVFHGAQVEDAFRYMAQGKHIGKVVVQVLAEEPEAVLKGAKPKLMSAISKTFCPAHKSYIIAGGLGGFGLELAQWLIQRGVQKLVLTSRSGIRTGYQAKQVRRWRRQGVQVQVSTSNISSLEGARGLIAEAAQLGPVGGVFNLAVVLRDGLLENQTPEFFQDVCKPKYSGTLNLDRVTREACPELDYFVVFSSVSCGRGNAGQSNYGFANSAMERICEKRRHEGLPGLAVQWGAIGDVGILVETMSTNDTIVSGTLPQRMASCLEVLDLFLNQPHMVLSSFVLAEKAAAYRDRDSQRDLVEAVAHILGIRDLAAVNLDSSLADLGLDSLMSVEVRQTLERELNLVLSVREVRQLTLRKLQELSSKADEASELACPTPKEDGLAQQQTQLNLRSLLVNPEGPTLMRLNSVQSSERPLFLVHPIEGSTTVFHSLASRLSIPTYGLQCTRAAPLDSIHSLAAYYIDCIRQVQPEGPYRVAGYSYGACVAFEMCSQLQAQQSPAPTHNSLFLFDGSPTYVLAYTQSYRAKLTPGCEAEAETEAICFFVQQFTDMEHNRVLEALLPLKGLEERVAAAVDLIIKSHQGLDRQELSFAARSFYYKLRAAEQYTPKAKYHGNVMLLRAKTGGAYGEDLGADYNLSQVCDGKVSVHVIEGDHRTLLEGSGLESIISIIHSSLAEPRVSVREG

Fatty acid synthase [14] = target: T3, Fatty acid synthase; experiment: FAS thioesterase domain inhibitors, dose response, biochemical, endpoint fluorescence intensity, uHTS hits (AID 624327); type: functional;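 also: fluorescence from hydrolysis of an O-methyl fluorescein acyl ester substrate by the enzyme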
Cytochrome P450 2C19 = Cytochrome P450 2C19 (Homo sapiens, UniProt P33261); experiment: Cytochrome panel assay with activity outcomes. Panel member name: p450-cyp2c19 Compounds with AC50 equal or less than 10 uM are considered active; type: functional
Chain of Cytochrome P450 2C19 (P33261 whole entry): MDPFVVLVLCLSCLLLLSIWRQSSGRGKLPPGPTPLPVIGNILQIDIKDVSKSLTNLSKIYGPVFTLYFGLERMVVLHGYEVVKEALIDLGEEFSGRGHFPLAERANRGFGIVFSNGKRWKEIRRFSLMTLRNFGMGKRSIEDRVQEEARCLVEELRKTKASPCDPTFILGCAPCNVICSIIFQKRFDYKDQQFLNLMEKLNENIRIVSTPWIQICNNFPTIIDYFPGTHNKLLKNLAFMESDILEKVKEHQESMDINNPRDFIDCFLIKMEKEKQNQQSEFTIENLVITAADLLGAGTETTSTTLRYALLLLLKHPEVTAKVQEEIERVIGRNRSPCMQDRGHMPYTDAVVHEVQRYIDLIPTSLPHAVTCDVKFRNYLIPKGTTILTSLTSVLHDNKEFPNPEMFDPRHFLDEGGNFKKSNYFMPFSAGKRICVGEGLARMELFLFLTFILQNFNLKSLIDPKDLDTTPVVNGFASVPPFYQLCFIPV

Cytochrome P450 1A2 = target: T4, Cytochrome P450 1A2 (Homo sapiens, UniProt P05177);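 also: PubChem cytochrome P450 panel assay, CYP1A2 panel member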
T4 sequence (P05177 whole entry): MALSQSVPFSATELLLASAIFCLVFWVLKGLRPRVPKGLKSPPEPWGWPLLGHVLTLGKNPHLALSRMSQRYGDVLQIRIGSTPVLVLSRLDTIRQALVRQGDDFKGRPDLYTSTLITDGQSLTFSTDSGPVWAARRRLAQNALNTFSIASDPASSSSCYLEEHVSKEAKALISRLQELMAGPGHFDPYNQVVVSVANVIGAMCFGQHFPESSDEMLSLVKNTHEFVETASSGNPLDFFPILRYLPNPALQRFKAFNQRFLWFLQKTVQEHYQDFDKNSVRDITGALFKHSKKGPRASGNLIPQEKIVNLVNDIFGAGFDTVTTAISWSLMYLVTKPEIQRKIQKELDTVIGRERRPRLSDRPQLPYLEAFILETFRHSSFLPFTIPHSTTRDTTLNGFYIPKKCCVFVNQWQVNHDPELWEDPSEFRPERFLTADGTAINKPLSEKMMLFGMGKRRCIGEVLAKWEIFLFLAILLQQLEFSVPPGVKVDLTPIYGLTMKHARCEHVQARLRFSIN

cells [15] = type: functional, cell-based
cells [16] = type: functional, cell-based; remark: listed apart in the source

COc1ccc(/C=C/C(=O)NC(=S)Nc2ccc(S(=O)(=O)Nc3cc(OC)ncn3)cc2)cc1
IC50 [1]: > 47.1 µM (inactive)
EC50 [2]: > 53 µM (inactive)

Cc1cccn2c(=O)c(/C=C(\C#N)C(N)=O)c(N3CCN(c4cccc(Cl)c4)CC3)nc12
IC50 (Nonstructural protein 1): > 100 µM (active)

Cn1c(=O)c2cc3ccc(Cl)cc3nc2n(C)c1=O
IC50 [1]: > 47.1 µM (inactive)
EC50 [2]: > 53 µM (inactive)

O=C(COC(=O)c1ccccc1-n1cnnn1)c1ccc(F)cc1
EC50 (H4): 31.3 µM (active)
EC50 [3]: 4.44 µM (active)
EC50 [4]: 7.61 µM (active)
EC50 [5]: 50.2 µM (active)

Cn1sc(NC(=O)c2cccc(Cl)c2)nc1=O
EC50 (H4): > 120 µM (not active)
EC50 [3]: 12.8 µM (active)
EC50 [4]: 7.11 µM (active)

CCCCOc1ccc2c(c1)/C(=C(\C(Cl)=C(Cl)Cl)[N+](=O)[O-])N2
IC50 [1]: > 47.1 µM (inactive)
EC50 [2]: 37.9 µM (active)

COc1cccc(C=NNC(=O)C[n+]2ccccc2)c1O
IC50 (Nonstructural protein 1): 10.4 µM (active)

CCOc1ccc(OCc2cccc(C(=O)N3CCCCCC3)c2)cc1
AC50 (HEK293): 4.36 µM (active)

O=C(CN1CC(=O)Oc2ccccc21)OCC(=O)c1ccccc1
IC50 (Nonstructural protein 1): 1.47 µM (active)

O=C(Nc1cccc(C(F)(F)F)c1)Nc1ccc(N2CCCC2)c(S(=O)(=O)Nc2ccccc2Cl)c1
AC50 [6]: 0.848 µM (active)
AC50 [7]: 5.53 µM (active)
EC50 [8]: 4.39 µM (active)
AC50 (INS1): 3.57 µM (active)
AC50 (Paired box protein Pax-8): 6.41 µM (active)
EC50 [9]: 3.89 µM (active)
AC50 [10]: 5.49 µM (active)
AC50 [11]: 4.42 µM (active)

COc1ccc(-c2c(C#Cc3ccccc3)c3ccccc3n2C)cc1
CC50 [12]: 44 µM (active)
EC50 (H4): 43.1 µM (active)
EC50 [3]: 19.6 µM (active)
EC50 [4]: 22.1 µM (active)

[O-][n+]1cc(-c2cc3ccccc3o2)[n+]([O-])c2c1CCCC2
EC50 (H4): 2.05 µM (active)
EC50 [3]: > 60 µM (not active)
EC50 [4]: 8.68 µM (active)

Cc1c([N+](=O)[O-])cc(S(=O)(=O)Nc2ccc(-c3ccc(N4CCCC4)nn3)cc2)cc1[N+](=O)[O-]
IC50 (Fatty acid synthase [13]): 0.524 µM (active)
CC50 [12]: > 50 µM (active)
IC50 (Fatty acid synthase [14]): 0.867 µM (active)

O=C(COc1ccc(Br)cc1)N1CCN(Cc2c[nH]c3ccccc23)CC1
AC50 (INS1): 3.34 µM (active)

CCn1cc(C(=O)NCc2ccco2)c(=O)c2cc(S(=O)(=O)N3CCC(C)CC3)ccc21
IC50 (Fatty acid synthase [13]): 3.21 µM (active)
IC50 (Fatty acid synthase [14]): 2.6 µM (active)

Cc1ccc(C(=O)Nc2ccnc(-c3cccnc3)n2)cc1
EC50 (H4): 15.4 µM (active)
EC50 [3]: 13.3 µM (active)
EC50 [4]: 16.1 µM (active)

CC(C)(C)c1ccc(COC(=O)CN2C(=O)NC3(CCCC3)C2=O)cc1
IC50 (Fatty acid synthase [13]): 5.17 µM (active)
IC50 (Fatty acid synthase [14]): 4.84 µM (active)

Cc1nc(S(=O)(=O)N2CCOCC2)c(C#N)c(C)c1Cl
AC50 (Cytochrome P450 2C19): inconclusive
EC50 (H4): > 120 µM (not active)
EC50 [3]: 10.7 µM (active)
EC50 [4]: 55.7 µM (active)
AC50 (Cytochrome P450 1A2): 1 µM (inconclusive)

O=C(NCCc1ccccc1)c1ccccc1Cl
AC50 (HEK293): 3.98 µM (active)

Cc1cc(/C(O)=C(/C([S-])=Nc2ccc(F)cc2)[n+]2ccccc2)c(C)n1-c1ccc(F)cc1
EC50 (H4): 21.1 µM (active)
EC50 [3]: > 120 µM (not active)
EC50 [4]: 16.1 µM (active)

CCc1ccc(NC(=O)CSc2nc(N)c(NC(=O)c3ccc(F)c(F)c3)c(O)n2)cc1
IC50 [1]: > 47.1 µM (inactive)
EC50 [2]: > 53 µM (inactive)

CCNc1ccc(S(=O)(=O)N(C)C)cc1NCC(=O)Nc1ccc(F)c(Cl)c1
IC50 (Fatty acid synthase [13]): 18.2 µM (active)
IC50 (Fatty acid synthase [14]): 12.4 µM (active)

CCOc1ccc2[nH]c(SCC3CC3(Cl)Cl)nc2c1 (centres undefined)
EC50 (H4): 30.2 µM (active)
EC50 [3]: 0.506 µM (active)
EC50 [4]: 29.7 µM (active)

O=C(CSc1cn(Cc2ccccc2)c2ccccc12)N1CCOCC1
EC50 (H4): 16.8 µM (active)
EC50 [3]: 20.9 µM (active)
EC50 [4]: 19.8 µM (active)

CCOc1ccc(CNC(=O)CCC(=O)N2Cc3cccc(OC)c3Oc3ncccc32)cc1
IC50 [1]: > 47.1 µM (inactive)
EC50 [2]: > 53 µM (inactive)

CN(C)c1ccc(C=C2C=CC=C2)cc1
IC50 (Nonstructural protein 1): 31.5 µM (active)

O=C(CSc1nc2ccccc2c(=O)n1CCCN1CCOCC1)Nc1ccc(Br)cc1
AC50 (HEK293): > 350 µM (inactive)

CCCCN(C=O)c1c(CC)nc2c(OCc3ccc(Cl)cc3Cl)cccn12
IC50 (Fatty acid synthase [13]): 8.19 µM (active)
IC50 (Fatty acid synthase [14]): 6.01 µM (active)

CCCc1cc(O)nc(SCC(=O)N(CCC#N)c2ccc3c(c2)OCCO3)n1
IC50 [1]: > 47.1 µM (inactive)
EC50 [2]: > 53 µM (inactive)

O=C(COC(=O)c1cc(F)c(F)cc1Cl)NC1CCCCCC1
IC50 (Fatty acid synthase [13]): 6.86 µM (active)
IC50 (Fatty acid synthase [14]): 13.1 µM (active)

O=C(N/N=C/c1c(O)ccc2ccccc12)c1ccc(CO)nc1
EC50 (cells [15]): > 350 µM (not active)
EC50 (cells [16]): 10.8 µM (active)
IC50 (Nonstructural protein 1): 10.6 µM (active)

COc1cccc(/C=N/NC(=O)CN2CC(c3ccccc3)CC2=O)c1O (centres undefined)
AC50 (INS1): 6.51 µM (active)

C[C@]12CCC(=O)C=C1CC[C@@H]1[C@@H]2[C@@H](O)C[C@]2(C=O)[C@@H](C(=O)CO)CC[C@@H]12 [ALDOSTERONE]
EC50 (H4): > 120 µM (not active)
EC50 [3]: > 120 µM (not active)
EC50 [4]: > 120 µM (not active)
